In ChEMBL document CHEMBL1201862, “PubChem BioAssay data set” (2004):
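Briefly, cells in 96-well plates were exposed to five compound concentrations for 48 h, and endpoints were estimated by linear interpolation. GI50 marks 50% less growth.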 Calls of active or inactive are those of the source. No stated cut-off is given here; in the data, active = GI50 up to about 1.1 µM and inactive = higher.

Columns and labels:
Experiment in all cases: inhibition of tumour cell growth, NCI panel, 48 h
A549 = system: A549
ACHN = system: ACHN
CAKI-1 = system: CAKI-1
DU-145 = system: DU-145
Hs-578T = system: Hs-578T
IGROV-1 = system: IGROV-1
MDA-N = system: MDA-N
MOLT-4 = system: MOLT-4
NCI-H226 = system: NCI-H226
NCI-H460 = system: NCI-H460
NCI-H522 = system: NCI-H522
OVCAR-4 = system: OVCAR-4
SF-295 = system: SF-295
SK-MEL-28 = system: SK-MEL-28
SK-MEL-5 = system: SK-MEL-5
SNB-19 = system: SNB-19
T47D = system: T47D
UACC-257 = system: UACC-257
UACC-62 = system: UACC-62
CCRF-CEM = system: CCRF-CEM

Compound	GI50 (A549)	GI50 (ACHN)	GI50 (CAKI-1)	GI50 (DU-145)	GI50 (Hs-578T)	GI50 (IGROV-1)	GI50 (MDA-N)	GI50 (MOLT-4)	GI50 (NCI-H226)	GI50 (NCI-H460)	GI50 (NCI-H522)	GI50 (OVCAR-4)	GI50 (SF-295)	GI50 (SK-MEL-28)	GI50 (SK-MEL-5)	GI50 (SNB-19)	GI50 (T47D)	GI50 (UACC-257)	GI50 (UACC-62)	GI50 (CCRF-CEM)
Nc1ncnc2c1ncn2C1OC(CO)C(O)C1N (stereo not drawn)	> 100 µM (inactive)	> 100 µM (inactive)	> 100 µM (inactive)	> 100 µM (inactive)	0.08 µM (active)	> 100 µM (inactive)	> 100 µM (inactive)	> 100 µM (inactive)	> 100 µM (inactive)	> 100 µM (inactive)	> 100 µM (inactive)	> 100 µM (inactive)	> 100 µM (inactive)	> 100 µM (inactive)	> 100 µM (inactive)	> 100 µM (inactive)	> 100 µM (inactive)	> 100 µM (inactive)	> 100 µM (inactive)	–
O=C1C=CC2(C=C1)O[C@H](Cc1ccccc1)[C@@H](Cc1ccccc1)O2	4.62 µM (inactive)	0.279 µM (active)	0.484 µM (active)	1.26 µM (inactive)	0.716 µM (active)	0.218 µM (active)	0.246 µM (active)	–	0.255 µM (active)	8.79 µM (inactive)	0.174 µM (active)	0.347 µM (active)	2.17 µM (inactive)	0.887 µM (active)	0.568 µM (active)	2.11 µM (inactive)	0.44 µM (active)	1.28 µM (inactive)	1.66 µM (inactive)	0.102 µM (active)
Cc1ccc2c(ccc3[nH]cc(CNc4ccc(NS(C)(=O)=O)cc4)c32)n1	23.1 µM (inactive)	33.7 µM (inactive)	14 µM (inactive)	18.7 µM (inactive)	27.4 µM (inactive)	27.8 µM (inactive)	17.5 µM (inactive)	18.6 µM (inactive)	20.3 µM (inactive)	18.9 µM (inactive)	14.9 µM (inactive)	21.7 µM (inactive)	21.8 µM (inactive)	23.4 µM (inactive)	18.6 µM (inactive)	36.4 µM (inactive)	12.3 µM (inactive)	19.1 µM (inactive)	16.1 µM (inactive)	23.6 µM (inactive)
CC(=O)c1ccccc1NS(=O)(=O)c1ccc2nc(C)n(NS(=O)(=O)c3ccccc3C(C)=O)c(=O)c2c1	–	> 100 µM (inactive)	> 100 µM (inactive)	> 100 µM (inactive)	> 100 µM (inactive)	> 100 µM (inactive)	> 100 µM (inactive)	> 100 µM (inactive)	> 100 µM (inactive)	> 100 µM (inactive)	> 100 µM (inactive)	> 100 µM (inactive)	> 100 µM (inactive)	> 100 µM (inactive)	> 100 µM (inactive)	> 100 µM (inactive)	> 100 µM (inactive)	> 100 µM (inactive)	> 100 µM (inactive)	> 100 µM (inactive)
CC1(C)CCN2C(=O)C34CCCC3CC21S4 (stereo not drawn)	> 100 µM (inactive)	> 100 µM (inactive)	> 100 µM (inactive)	> 100 µM (inactive)	> 100 µM (inactive)	> 100 µM (inactive)	> 100 µM (inactive)	> 100 µM (inactive)	> 100 µM (inactive)	–	> 100 µM (inactive)	> 100 µM (inactive)	> 100 µM (inactive)	> 100 µM (inactive)	> 100 µM (inactive)	> 100 µM (inactive)	> 100 µM (inactive)	> 100 µM (inactive)	> 100 µM (inactive)	78 µM (inactive)
CCSc1cc(C(=O)OC)c2n(c1=O)CCCC2	> 100 µM (inactive)	> 100 µM (inactive)	> 100 µM (inactive)	> 100 µM (inactive)	> 100 µM (inactive)	> 100 µM (inactive)	> 100 µM (inactive)	> 100 µM (inactive)	> 100 µM (inactive)	–	> 100 µM (inactive)	> 100 µM (inactive)	> 100 µM (inactive)	> 100 µM (inactive)	> 100 µM (inactive)	> 100 µM (inactive)	> 100 µM (inactive)	> 100 µM (inactive)	> 100 µM (inactive)	> 100 µM (inactive)
N#CC1(C#N)NC(c2ccccc2)C(C#N)(C#N)NC1c1ccccc1 (stereo not drawn)	> 100 µM (inactive)	> 100 µM (inactive)	6.59 µM (inactive)	> 100 µM (inactive)	> 100 µM (inactive)	> 100 µM (inactive)	> 100 µM (inactive)	> 100 µM (inactive)	> 100 µM (inactive)	> 100 µM (inactive)	27.4 µM (inactive)	> 100 µM (inactive)	> 100 µM (inactive)	> 100 µM (inactive)	> 100 µM (inactive)	> 100 µM (inactive)	> 100 µM (inactive)	> 100 µM (inactive)	> 100 µM (inactive)	> 100 µM (inactive)
N#CC(/N=N/c1ccc(Cl)cc1)c1nc2ccccc2o1 (stereo not drawn)	> 100 µM (inactive)	32.9 µM (inactive)	> 100 µM (inactive)	> 100 µM (inactive)	42.7 µM (inactive)	–	> 100 µM (inactive)	20.5 µM (inactive)	> 100 µM (inactive)	> 100 µM (inactive)	10.6 µM (inactive)	30.2 µM (inactive)	27.9 µM (inactive)	> 100 µM (inactive)	> 100 µM (inactive)	42.7 µM (inactive)	7.71 µM (inactive)	> 100 µM (inactive)	20.6 µM (inactive)	21.1 µM (inactive)
Nc1ccccc1C#CC(=O)c1cccc(C(F)(F)F)c1	16.8 µM (inactive)	–	3.21 µM (inactive)	3.24 µM (inactive)	2.56 µM (inactive)	0.258 µM (active)	3.1 µM (inactive)	2.55 µM (inactive)	3.58 µM (inactive)	19.3 µM (inactive)	1.09 µM (active)	2.22 µM (inactive)	15.7 µM (inactive)	–	2.35 µM (inactive)	14.5 µM (inactive)	4.03 µM (inactive)	15.7 µM (inactive)	1.86 µM (inactive)	0.867 µM (active)
O=C1C=C(C2=CC(=O)C(=O)c3ccccc32)c2ccccc2C1=O	35.6 µM (inactive)	21 µM (inactive)	22 µM (inactive)	14.9 µM (inactive)	27.7 µM (inactive)	28.8 µM (inactive)	2.02 µM (inactive)	2.44 µM (inactive)	38.5 µM (inactive)	–	2.76 µM (inactive)	47.6 µM (inactive)	21.2 µM (inactive)	4.26 µM (inactive)	2.85 µM (inactive)	29.7 µM (inactive)	19.5 µM (inactive)	6.24 µM (inactive)	5.37 µM (inactive)	1.98 µM (inactive)
Nc1ccc(Nc2cc(=O)[nH]c(=O)[nH]2)cc1Cl	> 100 µM (inactive)	> 100 µM (inactive)	> 100 µM (inactive)	> 100 µM (inactive)	> 100 µM (inactive)	–	> 100 µM (inactive)	> 100 µM (inactive)	> 100 µM (inactive)	> 100 µM (inactive)	> 100 µM (inactive)	> 100 µM (inactive)	> 100 µM (inactive)	> 100 µM (inactive)	> 100 µM (inactive)	> 100 µM (inactive)	> 100 µM (inactive)	> 100 µM (inactive)	> 100 µM (inactive)	> 100 µM (inactive)
CCOC(=O)C1=CNC(C(=O)OCC)C1c1cccn1-c1ccccc1 (stereo not drawn)	33.9 µM (inactive)	30.5 µM (inactive)	32.6 µM (inactive)	41.3 µM (inactive)	38.6 µM (inactive)	33 µM (inactive)	20 µM (inactive)	19.8 µM (inactive)	23.3 µM (inactive)	29.4 µM (inactive)	21.3 µM (inactive)	46.6 µM (inactive)	24.5 µM (inactive)	28.1 µM (inactive)	17.5 µM (inactive)	–	25.8 µM (inactive)	35.7 µM (inactive)	24.4 µM (inactive)	29.3 µM (inactive)
O=C(O)C(F)(F)C(F)(F)C(F)(F)C(F)(F)C(=O)O	> 100 µM (inactive)	> 100 µM (inactive)	> 100 µM (inactive)	> 100 µM (inactive)	> 100 µM (inactive)	> 100 µM (inactive)	> 100 µM (inactive)	–	> 100 µM (inactive)	> 100 µM (inactive)	> 100 µM (inactive)	> 100 µM (inactive)	> 100 µM (inactive)	> 100 µM (inactive)	> 100 µM (inactive)	> 100 µM (inactive)	> 100 µM (inactive)	> 100 µM (inactive)	> 100 µM (inactive)	> 100 µM (inactive)
c1cc(C[S+]2CCCC2)sc1C[S+]1CCCC1	> 100 µM (inactive)	> 100 µM (inactive)	> 100 µM (inactive)	> 100 µM (inactive)	> 100 µM (inactive)	> 100 µM (inactive)	> 100 µM (inactive)	> 100 µM (inactive)	> 100 µM (inactive)	> 100 µM (inactive)	> 100 µM (inactive)	> 100 µM (inactive)	> 100 µM (inactive)	> 10 µM (inactive)	> 100 µM (inactive)	> 100 µM (inactive)	> 100 µM (inactive)	> 100 µM (inactive)	> 100 µM (inactive)	> 100 µM (inactive)
